Test results: patent publication US8178506B2, “Oligomeric compounds and compositions for use in modulation of small non-coding RNAs” (Regulus Therapeutics Inc., priority 2003, dated 2012)
In the oligonucleotide strings, read from the 5' end, every base follows the letter of its sugar. An asterisk marks phosphorothioate; unmarked linkages are phosphodiester. Other units and linkages are bracketed, terminal groups are in braces. A string of capitals states the bases alone. e = 2'-O-(2-methoxyethyl) (MOE); [5mC] = 5-methylcytosine; d = 2'-deoxy (DNA)

What was measured:
T47Dp53 cells = assay: Cell cycle assay in T47Dp53 cells; format: cell-based, human; conditions: 150 nM, 48 hours, relative to untreated control
B16-F10 cells = assay: Cell cycle assay in B16-F10 cells; format: cell-based, mouse; conditions: 150 nM, 48 hours, relative to untreated control
ob/ob mice = assay: ob/ob mice: plasma parameters, food consumption, marker gene mRNA; format: in vivo, mouse; conditions: ob/ob mice; for mRNA expression levels of the Glut4, aP2 and HSL marker genes: 25 mg/kg two times per week
Method in brief: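 Male C57Bl/6J ob/ob mice received oligomeric compound or control at 25 mg/kg s.c. twice weekly, for 4 weeks on a 10-15% fat diet or for 6 weeks on high-fat diet. Plasma glucose and insulin were measured at 0, 2 and 4 weeks; i.p. glucose/insulin tolerance tests were run; serum lipids, liver triglycerides and histology were assessed, with liver, BAT and WAT mRNA quantified by real-time PCR.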

[1] = 25 mg/kg s.c. two times per week, 6 weeks

Row | Substance | % cells in cell cycle phase G1 (T47Dp53 cells) [%] | % cells in cell cycle phase G2/M (T47Dp53 cells) [%] | % cells in cell cycle phase S (T47Dp53 cells) [%] | % cells in cell cycle phase aneuploid (T47Dp53 cells) [%] | % cells in cell cycle phase subG1 (T47Dp53 cells) [%] | % cells in cell cycle phase G1 (B16-F10 cells) [%] | % cells in cell cycle phase G2/M (B16-F10 cells) [%] | % cells in cell cycle phase S (B16-F10 cells) [%] | % cells in cell cycle phase aneuploid (B16-F10 cells) [%] | % cells in cell cycle phase subG1 (B16-F10 cells) [%] | plasma glucose levels (fed) (ob/ob mice; [1]) | plasma glucose levels, fasted state (ob/ob mice; day 19) | mRNA expression levels of the Glut4, aP2 and HSL marker genes (ob/ob mice) | plasma cholesterol levels (ob/ob mice; [1]) | plasma triglyceride levels (ob/ob mice; [1])
1 | 327902 (antisense eG*eG*e[5mC]*eT*eG*eT*e[5mC]*eA*eA*eT*eT*e[5mC]*eA*eT*eA*eG*eG*eT*e[5mC]*eA*eG) [compound 327902] | 100 | 102 | 98 | 97 | 155 | 112 | 98 | 88 | 101 | 151 | – | – | – | – | –
2 | ACTTTCGGTTATCTAGCTTTA [ISIS 327892] (chemistry not given here) [uniform 2′-MOE PS; targets mir-131-2/mir-9] | – | – | – | – | – | – | – | – | – | – | reduced beginning at approximately four weeks after the start of treatment | significant reductions in plasma glucose levels | – | – | –
3 | 327933 (antisense eA*eA*eG*eG*eG*eA*eT*eT*e[5mC]*e[5mC]*eT*eG*eG*eG*eA*eA*eA*eA*e[5mC]*eT*eG*eG*eA*e[5mC]) [compound 327933] | – | – | – | – | – | 109 | 116 | 84 | 130 | 104 | – | – | – | – | –
4 | TGAGCTACAGTGCTTCATCTCA [ISIS 327901] (chemistry not given here) [uniform 2′-MOE PS; targets mir-143] | – | – | – | – | – | – | – | – | – | – | – | – | slightly reduced | – | –
5 | TGAGCTACAGTGCTTCATCTCA [ISIS 340927] (chemistry not given here) [5-10-7 2′-MOE gapmer PS; targets mature mir-143] | – | – | – | – | – | – | – | – | – | – | generally slightly lower | – | slightly reduced | slightly decrease over time | generally slightly lower
6 | 327905 (antisense e[5mC]*eA*eG*eA*e[5mC]*eT*e[5mC]*e[5mC]*eG*eG*eT*eG*eG*eA*eA*eT*eG*eA*eA*eG*eG*eA) [compound 327905] | 112 | 104 | 80 | 103 | 109 | 107 | 106 | 89 | 94 | 142 | – | – | – | – | –
7 | 328759 (antisense eG*eA*eG*eG*eG*dA*dT*dT*dG*dT*dA*dT*dG*dA*dA*e[5mC]*eA*eT*e[5mC]*eT) [compound 328759] | 99 | 108 | 93 | 109 | 423 | 104 | 110 | 91 | 126 | 132 | – | – | – | – | –
